Measurements reported in the supplement of paper PMC10307832.

What was measured:
Assay in all cases: relative viability (nuclei count vs DMSO), 5 days (fraction); higher = more cells survive
Zebularine + Vorinostat = compound: O=c1ncccn1[C@@H]1O[C@H](CO)[C@@H](O)[C@H]1O [Zebularine] + O=C(CCCCCCC(=O)Nc1ccccc1)NO [Vorinostat] (partner 1 µM)
In short: (§1)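 Relative viability divides the nuclei count in treated wells by that in vehicle wells. Lung cancer cell lines were seeded in 1536-well plates, dosed by pin tool the next day, and fixed and stained after 5 days in one step with final 0.05% Triton X-100, 1% formaldehyde and 1 ug/ml Hoechst. Dosing was a single drug or a fixed anchor-drug dose plus five library-drug doses (not always all listed) in √10 steps, and values are medians of duplicate plates imaged at 4×.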

Zebularine + Decitabine = compound: O=c1ncccn1[C@@H]1O[C@H](CO)[C@@H](O)[C@H]1O [Zebularine] + Nc1ncn([C@H]2C[C@H](O)[C@@H](CO)O2)c(=O)n1 [Decitabine] (partner 2 µM)
In short: as §1

Zebularine + Dasatinib = compound: O=c1ncccn1[C@@H]1O[C@H](CO)[C@@H](O)[C@H]1O [Zebularine] + Cc1nc(Nc2ncc(C(=O)Nc3c(C)cccc3Cl)s2)cc(N2CCN(CCO)CC2)n1 [Dasatinib] (partner 0.075 µM)
In short: as §1

BI-D1870 + Vorinostat = compound: CC(C)CCN1c2nc(Nc3cc(F)c(O)c(F)c3)ncc2N(C)C(=O)C1C [BI-D1870] + O=C(CCCCCCC(=O)Nc1ccccc1)NO [Vorinostat] (partner 1 µM)
In short: as §1

| Cell Line | relative viability (Zebularine + Vorinostat; first compound 1 µM) | relative viability (Zebularine + Vorinostat; first compound 3.162 µM) | relative viability (Zebularine + Vorinostat; first compound 10 µM) | relative viability (Zebularine + Vorinostat; first compound 31.62 µM) | relative viability (Zebularine + Vorinostat; first compound 100 µM) | relative viability (Zebularine + Decitabine; first compound 1 µM) | relative viability (Zebularine + Decitabine; first compound 3.162 µM) | relative viability (Zebularine + Decitabine; first compound 10 µM) | relative viability (Zebularine + Decitabine; first compound 31.62 µM) | relative viability (Zebularine + Decitabine; first compound 100 µM) | relative viability (Zebularine + Dasatinib; first compound 1 µM) | relative viability (Zebularine + Dasatinib; first compound 3.162 µM) | relative viability (Zebularine + Dasatinib; first compound 10 µM) | relative viability (Zebularine + Dasatinib; first compound 31.62 µM) | relative viability (Zebularine + Dasatinib; first compound 100 µM) | relative viability (BI-D1870 + Vorinostat; first compound 0.04 µM) | relative viability (BI-D1870 + Vorinostat; first compound 0.1265 µM) | relative viability (BI-D1870 + Vorinostat; first compound 0.4 µM) | relative viability (BI-D1870 + Vorinostat; first compound 1.265 µM) | relative viability (BI-D1870 + Vorinostat; first compound 4 µM) |
| --- | --- | --- | --- | --- | --- | --- | --- | --- | --- | --- | --- | --- | --- | --- | --- | --- | --- | --- | --- | --- |
| LOU-NH91 | 0.981 | 0.899 | 0.81 | 0.9 | 0.557 | 0.842 | 0.802 | 0.744 | 0.849 | 0.593 | 0.569 | 0.595 | 0.553 | 0.571 | 0.473 | 0.991 | 0.859 | 0.876 | 0.858 | 0.655 |
| ChaGo-K-1 | 0.767 | 0.648 | 0.442 | 0.274 | 0.252 | 0.534 | 0.566 | 0.432 | 0.232 | 0.199 | 0.619 | 0.557 | 0.312 | 0.269 | 0.183 | 0.8 | 0.703 | 0.711 | 0.72 | 0.641 |
| PC-14 | 0.756 | 0.439 | 0.214 | 0.154 | 0.0885 | 0.193 | 0.135 | 0.117 | 0.0981 | 0.0826 | 0.301 | 0.198 | 0.224 | 0.0811 | 0.0854 | 0.825 | 0.625 | 0.58 | 0.699 | 0.569 |
| NCI-H1437 | 1.02 | 0.899 | 0.727 | 0.911 | 0.55 | 0.617 | 0.639 | 0.464 | 0.686 | 0.528 | 0.521 | 0.462 | 0.333 | 0.531 | 0.459 | 0.809 | 0.747 | 0.749 | 0.76 | 0.492 |
| NCI-H460 | 0.652 | 0.702 | 0.297 | 0.298 | 0.166 | 0.549 | 0.504 | 0.236 | 0.467 | 0.112 | 0.725 | 0.527 | 0.326 | 0.304 | 0.0827 | 0.922 | 0.643 | 0.672 | 0.37 | 0.0691 |
| NCI-H1666 | 1.01 | 1.02 | 0.752 | 1.09 | 0.939 | 0.8 | 0.736 | 0.698 | 0.712 | 0.669 | 0.828 | 0.817 | 0.714 | 0.993 | 0.689 | 1.03 | 1.01 | 0.942 | 0.956 | 1.02 |
| SW 900 | 0.497 | 0.667 |  | 0.67 | 0.503 | 0.512 | 0.4 |  | 0.43 | 0.432 | 0.647 | 0.498 | 0.328 | 0.926 | 0.484 | 0.504 | 0.537 | 0.582 | 0.725 | 0.466 |
| NCI-H1651 | 0.637 | 0.537 | 0.501 | 0.523 | 0.46 | 0.714 | 0.56 | 0.58 | 0.522 | 0.347 | 0.399 | 0.359 | 0.343 | 0.53 | 0.247 | 0.557 | 0.536 | 0.472 | 0.623 | 0.451 |
| NCI-H1755 | 0.809 | 0.892 | 0.614 | 1.11 | 0.648 | 0.713 | 0.715 | 0.703 | 0.786 | 0.615 | 0.494 | 0.452 | 0.342 | 0.49 | 0.435 | 0.938 | 0.738 | 0.705 | 0.849 | 0.788 |
| NCI-H661 | 0.9 | 0.829 | 0.673 | 0.936 | 0.824 | 0.564 | 0.551 | 0.48 | 0.608 | 0.505 | 0.833 | 0.918 | 0.868 | 1.05 | 0.819 | 0.815 | 0.806 | 0.764 | 0.691 | 0.451 |
| HARA | 0.613 | 0.541 |  | 0.323 | 0.213 | 0.595 | 0.603 | 0.433 | 0.554 | 0.459 | 0.219 |  |  | 0.35 | 0.274 | 0.542 | 0.405 | 0.641 | 0.614 | 0.495 |
| NCI-H596 | 0.628 | 0.598 | 0.358 | 0.577 | 0.612 | 0.84 | 1.07 | 0.894 | 1.06 | 0.98 | 0.606 | 0.648 | 0.461 | 0.694 | 0.565 | 0.666 | 0.591 | 0.65 | 0.59 | 0.511 |
| NCI-H23 | 0.661 | 0.587 |  | 0.542 | 0.509 | 0.344 | 0.342 |  | 0.303 | 0.335 | 0.83 | 0.876 | 0.497 | 0.774 | 0.791 | 0.555 | 0.619 | 0.489 | 0.448 | 0.202 |
| LCLC-97TM1 | 0.529 | 0.253 | 0.33 | 0.157 | 0.152 | 0.211 | 0.202 | 0.183 | 0.176 | 0.117 | 0.868 | 0.844 | 0.509 | 0.577 | 0.315 | 1 | 0.684 | 0.722 | 0.868 | 0.472 |
| EPLC-272H | 0.419 | 0.32 |  | 0.42 | 0.178 | 0.404 |  | 0.398 | 0.364 | 0.371 | 0.405 | 0.356 | 0.255 | 0.34 | 0.28 | 0.523 | 0.663 | 0.484 | 0.297 | 0.148 |
| NCI-H2342 | 0.863 | 0.642 | 0.674 | 0.679 | 0.712 | 0.744 | 0.749 | 0.699 | 0.815 | 0.696 | 0.364 | 0.337 | 0.268 | 0.334 | 0.341 | 0.806 | 0.61 | 0.718 | 0.812 | 0.966 |
| NCI-H1915 | 0.538 | 0.53 | 0.412 | 0.607 | 0.585 | 0.284 | 0.278 | 0.261 | 0.265 | 0.282 | 0.362 | 0.328 |  | 0.374 | 0.287 | 0.55 | 0.484 | 0.513 | 0.489 | 0.436 |
| NCI-H2405 | 1.2 | 0.981 | 0.894 | 1 | 0.826 | 0.731 | 0.699 | 0.671 | 0.765 | 0.58 | 0.229 | 0.213 | 0.207 | 0.188 | 0.211 | 1.04 | 1.03 | 1 | 0.974 | 0.9 |
| NCI-H322M | 0.946 | 0.873 | 1.21 | 0.945 | 0.537 | 0.712 | 0.636 | 0.614 | 0.696 | 0.675 | 0.257 | 0.263 | 0.237 | 0.278 | 0.246 | 0.919 | 0.879 | 0.76 | 0.781 | 0.769 |
| NCI-H2170 | 0.886 | 0.842 | 0.533 | 0.868 | 0.581 | 0.48 | 0.423 | 0.426 | 0.505 | 0.349 | 0.658 | 0.572 | 0.364 | 0.559 | 0.278 | 1.01 | 0.786 | 0.786 | 0.783 | 0.675 |
| NCI-H522 | 0.797 | 0.938 | 0.802 | 1.01 | 0.778 | 0.621 | 0.577 | 0.641 | 0.61 | 0.639 | 0.859 | 0.886 | 0.473 | 0.933 | 0.938 | 1.02 | 1.09 | 1.01 | 0.907 | 0.94 |
| NCI-H1395 | 0.7 | 0.753 | 0.661 | 0.655 | 0.515 | 0.678 | 0.755 | 0.82 | 0.709 | 0.623 | 0.443 | 0.37 | 0.408 | 0.341 | 0.36 | 0.774 | 0.641 | 0.801 | 0.705 | 0.597 |
| NCI-H358 | 0.837 | 0.696 | 0.327 | 0.358 | 0.223 | 0.219 | 0.172 | 0.178 | 0.214 | 0.144 | 0.169 | 0.134 | 0.194 | 0.174 | 0.105 | 0.834 | 0.61 | 0.519 | 0.386 | 0.229 |
| NCI-H838 | 0.712 | 0.723 | 0.654 | 0.859 | 0.402 | 0.504 | 0.49 | 0.489 | 0.42 | 0.289 | 0.318 | 0.238 | 0.239 | 0.268 | 0.278 | 0.719 | 0.643 | 0.682 | 0.68 | 0.558 |
